Experiments:
[1] = test system: white spruce somatic embryos; test: Somatic seedling length after desiccation and germination (Example 8); format: cell-based; settings: ABA raised to 40 μM and water potential to 400 or 540 mmol/kg with PEG, versus control; two weeks
Excerpt: In order to desiccate the somatic embryos, they were transferred on their filter paper supports to an empty petri dish. The lid was replaced and left unsealed to prevent contamination while allowing the moisture to escape from the dish. Somatic embryos were desiccated in a sterile chamber in which sterile air at ambient relative humidity (usually 20-60% r.h.) was passed. Similarly, embryos may be desiccated in one or more controlled gaseous environments of relative humidity, ranging from about 5% to 100%. […] Embryos were usually left two weeks to dry. Desiccated embryos can then be stored, preferably frozen, or germinated directly.
For germination, the somatic embryos upon their filter paper supports were rehydrated on germination medium. This consisted of ½ LM, 2% sucrose, 0.7% agar (Sigma), with no growth regulators, glutamine or casein hydrolysate, in petri dishes or Sigma PHYTATRAYS™. […]
Somatic embryos were produced following the methods described in Example 4. […] One batch of desiccated spruce embryos produced using these methods was measured and a moisture content of about 7.7 (±0.2)% recorded. […] Two weeks after imbibition, the somatic plantlets were removed from the culture medium and their lengths were measured. Between 53 to 63 somatic plantlets were recorded per treatment.

[2] = test system: white spruce somatic embryos; test: Liquid maturation pretreatments with ABA and PEG, number of mature embryos (Example 7); format: cell-based
Method: Experiments were established to determine whether increasing ABA and water stress can be applied early in maturation. Somatic embryos in liquid maintenance suspension culture were transferred to liquid culture medium containing 1/20 of the strength of hormones in the preculture medium for 7 days. Seven treatments were prepared using these cultures as outlined below.
Starting water potential was 112 mmol/kg, and all preculture media contained 1/20 strength 2,4-D and BA that were present in the proliferation medium. Following these treatments, a 20% suspension was prepared and the embryos were plated onto solidified maturation medium containing PEG adjusted to 290 mmol/kg with PEG and 20 μM ABA.
Experiments were repeated at least three times and three replicates were prepared per treatment. Cultures were transferred to fresh medium every two weeks. Alternatively, to determine if PEG/ABA liquid maturation treatments modified the optimal starting water potential, the embryos were plated from the nine treatments to medium containing ABA at 20 μM and PEG at 290 or 380 mmol/kg. Additionally, to determine if PEG/ABA liquid maturation treatments modified the optimal starting ABA concentration, the embryos were plated from the nine treatments to medium containing PEG at 337 mmol/kg and ABA at 20 or 40 μM. Cultures were transferred to fresh medium every two weeks. After six weeks, the number of embryos developing per 0.75 mL starting inoculum was recorded. It can be seen from FIG. 3 that all treatments in which PEG and ABA were added gave an improvement over the control. Previous experiments had shown that the control ( 1/20 of the hormones present in the proliferation medium) yielded almost four times the number of mature embryos compared to no pretreatment (i e., full hormone treatment), and almost three times the number of mature embryos compared to culture in hormone-free preculture medium (i e., means of 154, 41, and 58 mature embryos per replicate, respectively). […] The best treatments were those that contained additions of both PEG and ABA. […]

CC1=CC(=O)CC(C)(C)[C@@]1(O)/C=C/C(C)=C\C(=O)O [ABA, abscisic acid]
increase in plantlet length [1]: ~50%
best starting concentration of ABA in solidified maturation medium ([2]; optimal liquid treatments, PEG 337 mmol/kg, 20 or 40 μM tested, FIG. 4): 20 µM
embryos per milliliter of starting inoculum ([2]; treatment 8: PEG and ABA added in steps at days 3 and 5): over 280 embryos per milliliter
average number of mature embryos ([2]; treatment 8: PEG and ABA added in steps at days 3 and 5 of liquid culture, per 0.75 mL inoculum): about 224 mature embryos per replicate

From patent publication US6627441B1, “Increasing levels of growth regulator and/or water stress during embryo development” (priority 1998, dated 2003)
